Measurements from US12336536B2, “Method for controlling herbicide resistant or tolerant weeds” (BASF Agro B.V., priority 2015, dated 2025).

Key:
[1] = test system: ryegrass (LOLMU) biotypes; experiment: Greenhouse test, control of resistant weed biotypes, post-emergence, ryegrass; type: in vivo, Lolium multiflorum; conditions: post-emergence, scale 0 to 100
Protocol: (§1) The herbicidal activity of herbicide A on resistant weed biotypes was tested in comparison with certain commercial herbicides by the following greenhouse experiments:
(§2) The culture containers used were plastic flowerpots containing loamy sand with approximately 3.0% of humus as the substrate. The seeds of the test plants were sown separately for each species. Six blackgrass (ALOMY) (10-103, 10-170, 09-591, 10-123, 11-215, 11-146) and six ryeg rass (LOLMU) (12-166, 12-143, 12-165, 12-307, 13-304, 13-313) biotypes with varying degrees of resistance towards a range of modes of action according to the HRAC (Herbicide Resistance Action Committee) classification on mode of action 2010 (see e.g http://www.hracglobal.com/pages/classificationofherbicidesiteofaction.aspx) were tested alongside two non-resistant biotypes (14-116 and 13-243), see Tables 1 and 2 below.
(§3) For the post-emergence treatment, the test plants were first grown to a height of 3 to 15 cm, depending on the plant habit, and only then treated with the active ingredients which had been suspended or emulsified in water. For this purpose, the test plants were either sown directly and grown in the same containers, or they were first grown separately as seedlings and transplanted into the test containers a few days prior to treatment.
(§4) Depending on the species, the plants were kept at 10-25° C. or 20-35° C. The test period extended over 2 to 4 weeks. During this time, the plants were tended, and their response to the individual treatments was evaluated.
(§5) The racemic mixture (±)-2-exo-(2-Methylbenzyloxy)-1-methyl-4-isopropyl-7-oxabicyclo[2.2.1]heptane was used as herbicide A and formulated as emulsifiable concentrates with an active ingredient concentration of 50 g/l, 100 g/l or 750 g/l respectively.
(§6) Flufenacet was used as a commercial concentrated solution formulation having an active ingredient concentration of 500 g/l (Cadou).
(§7) Imazamox was used as a water dispersible granule (70% WG).
(§8) Evaluation of the herbicidal activity was carried out using a scale from 0 to 100. 100 means complete destruction of at least the aerial moieties, and 0 means no damage, or normal course of growth. A good herbicidal activity is given at values of at least 70 and a very good herbicidal activity is given at values of at least 85.

[2] = test system: blackgrass (ALOMY) biotypes; experiment: Greenhouse test, control of resistant weed biotypes, post-emergence, blackgrass; type: in vivo, Alopecurus myosuroides; conditions: post-emergence, scale 0 to 100
Protocol: as §1, §2, §3, §4, §5, §6, §7, §8

[3] = BT 12-143, resistant HRAC group A, B, C, E, K, 125 g ai/ha
[4] = BT 12-165, resistant HRAC group A, B, E, K, 125 g ai/ha
[5] = BT 12-166, resistant HRAC group A, B, E, K, 125 g ai/ha
[6] = BT 12-307, resistant HRAC group B, F, K, O, 125 g ai/ha
[7] = BT 13-243, Sensitive standard, 125 g ai/ha
[8] = BT 13-304, resistant HRAC group A, B, E, K, 125 g ai/ha
[9] = BT 13-313, resistant HRAC group A, B, C, E, K, 125 g ai/ha
[10] = BT 09-591, resistant HRAC group A, B, K, 125 g ai/ha
[11] = BT 10-103, resistant HRAC group A, B, K, 125 g ai/ha
[12] = BT 10-123, resistant HRAC group A, B, C, 125 g ai/ha
[13] = BT 10-170, resistant HRAC group A, B, K, 125 g ai/ha
[14] = BT 11-146, resistant HRAC group K, 125 g ai/ha
[15] = BT 11-215, resistant HRAC group A, B, C, E, K, 125 g ai/ha
[16] = BT 14-116, Sensitive standard, 125 g ai/ha

Row | SMILES | Herbicidal activity [1, 3] | Herbicidal activity [1, 4] | Herbicidal activity [1, 5] | Herbicidal activity [1, 6] | Herbicidal activity [1, 7] | Herbicidal activity [1, 8] | Herbicidal activity [1, 9] | Herbicidal activity [2, 10] | Herbicidal activity [2, 11] | Herbicidal activity [2, 12] | Herbicidal activity [2, 13] | Herbicidal activity [2, 14] | Herbicidal activity [2, 15] | Herbicidal activity [2, 16] | also measured
1 | CC(C)N(C(=O)COc1nnc(C(F)(F)F)s1)c1ccc(F)cc1 [Flufenacet, flufenacet] | 60 | 60 | 10 | 15 | 80 | 75 | 35 | 80 | 75 | 80 | 90 | 70 | 75 | 98 | Herbicidal activity ([1]; BT 12-143, resistant HRAC group A, B, C, E, K, 250 g ai/ha): 60; Herbicidal activity ([1]; BT 12-165, resistant HRAC group A, B, E, K, 250 g ai/ha): 60; Herbicidal activity ([1]; BT 12-166, resistant HRAC group A, B, E, K, 250 g ai/ha): 60; Herbicidal activity ([1]; BT 12-307, resistant HRAC group B, F, K, O, 250 g ai/ha): 15; Herbicidal activity ([1]; BT 13-243, Sensitive standard, 250 g ai/ha): 95; Herbicidal activity ([1]; BT 13-304, resistant HRAC group A, B, E, K, 250 g ai/ha): 75; Herbicidal activity ([1]; BT 13-313, resistant HRAC group A, B, C, E, K, 250 g ai/ha): 50; Herbicidal activity ([2]; BT 09-591, resistant HRAC group A, B, K, 250 g ai/ha): 95; Herbicidal activity ([2]; BT 10-103, resistant HRAC group A, B, K, 250 g ai/ha): 90; Herbicidal activity ([2]; BT 10-123, resistant HRAC group A, B, C, 250 g ai/ha): 95; Herbicidal activity ([2]; BT 10-170, resistant HRAC group A, B, K, 250 g ai/ha): 95; Herbicidal activity ([2]; BT 11-146, resistant HRAC group K, 250 g ai/ha): 80; Herbicidal activity ([2]; BT 11-215, resistant HRAC group A, B, C, E, K, 250 g ai/ha): 95; Herbicidal activity ([2]; BT 14-116, Sensitive standard, 250 g ai/ha): 100
2 | COCc1cnc(C2=NC(C)(C(C)C)C(=O)N2)c(C(=O)O)c1 (centres unmarked) [Imazamox, imazamox] | 75 | 85 | 98 | 85 | 85 | 85 | 85 | 50 | 70 | 70 | 95 | 75 | 85 | 95 | Herbicidal activity ([1]; BT 12-143, resistant HRAC group A, B, C, E, K, 62.5 g ai/ha): 65; Herbicidal activity ([1]; BT 12-165, resistant HRAC group A, B, E, K, 62.5 g ai/ha): 70; Herbicidal activity ([1]; BT 12-166, resistant HRAC group A, B, E, K, 62.5 g ai/ha): 85; Herbicidal activity ([1]; BT 12-307, resistant HRAC group B, F, K, O, 62.5 g ai/ha): 80; Herbicidal activity ([1]; BT 13-243, Sensitive standard, 62.5 g ai/ha): 90; Herbicidal activity ([1]; BT 13-304, resistant HRAC group A, B, E, K, 62.5 g ai/ha): 90; Herbicidal activity ([1]; BT 13-313, resistant HRAC group A, B, C, E, K, 62.5 g ai/ha): 80; Herbicidal activity ([2]; BT 09-591, resistant HRAC group A, B, K, 62.5 g ai/ha): 20; Herbicidal activity ([2]; BT 10-103, resistant HRAC group A, B, K, 62.5 g ai/ha): 60; Herbicidal activity ([2]; BT 10-123, resistant HRAC group A, B, C, 62.5 g ai/ha): 60; Herbicidal activity ([2]; BT 10-170, resistant HRAC group A, B, K, 62.5 g ai/ha): 80; Herbicidal activity ([2]; BT 11-146, resistant HRAC group K, 62.5 g ai/ha): 75; Herbicidal activity ([2]; BT 11-215, resistant HRAC group A, B, C, E, K, 62.5 g ai/ha): 85; Herbicidal activity ([2]; BT 14-116, Sensitive standard, 62.5 g ai/ha): 95
